# Assay results from the Kinase Knowledgebase extract (Sharma et al. 2016).
# How the values were obtained:
# PIK3CD (Human) = PIK3CD (Human) (UniProt O00329); assay: Enzyme Assay
# PIK3CG (human) = PIK3CG (human) (UniProt P48736); assay: Enzyme Assay
# PIK3CG (human), sequence (P48736 whole entry, looked up): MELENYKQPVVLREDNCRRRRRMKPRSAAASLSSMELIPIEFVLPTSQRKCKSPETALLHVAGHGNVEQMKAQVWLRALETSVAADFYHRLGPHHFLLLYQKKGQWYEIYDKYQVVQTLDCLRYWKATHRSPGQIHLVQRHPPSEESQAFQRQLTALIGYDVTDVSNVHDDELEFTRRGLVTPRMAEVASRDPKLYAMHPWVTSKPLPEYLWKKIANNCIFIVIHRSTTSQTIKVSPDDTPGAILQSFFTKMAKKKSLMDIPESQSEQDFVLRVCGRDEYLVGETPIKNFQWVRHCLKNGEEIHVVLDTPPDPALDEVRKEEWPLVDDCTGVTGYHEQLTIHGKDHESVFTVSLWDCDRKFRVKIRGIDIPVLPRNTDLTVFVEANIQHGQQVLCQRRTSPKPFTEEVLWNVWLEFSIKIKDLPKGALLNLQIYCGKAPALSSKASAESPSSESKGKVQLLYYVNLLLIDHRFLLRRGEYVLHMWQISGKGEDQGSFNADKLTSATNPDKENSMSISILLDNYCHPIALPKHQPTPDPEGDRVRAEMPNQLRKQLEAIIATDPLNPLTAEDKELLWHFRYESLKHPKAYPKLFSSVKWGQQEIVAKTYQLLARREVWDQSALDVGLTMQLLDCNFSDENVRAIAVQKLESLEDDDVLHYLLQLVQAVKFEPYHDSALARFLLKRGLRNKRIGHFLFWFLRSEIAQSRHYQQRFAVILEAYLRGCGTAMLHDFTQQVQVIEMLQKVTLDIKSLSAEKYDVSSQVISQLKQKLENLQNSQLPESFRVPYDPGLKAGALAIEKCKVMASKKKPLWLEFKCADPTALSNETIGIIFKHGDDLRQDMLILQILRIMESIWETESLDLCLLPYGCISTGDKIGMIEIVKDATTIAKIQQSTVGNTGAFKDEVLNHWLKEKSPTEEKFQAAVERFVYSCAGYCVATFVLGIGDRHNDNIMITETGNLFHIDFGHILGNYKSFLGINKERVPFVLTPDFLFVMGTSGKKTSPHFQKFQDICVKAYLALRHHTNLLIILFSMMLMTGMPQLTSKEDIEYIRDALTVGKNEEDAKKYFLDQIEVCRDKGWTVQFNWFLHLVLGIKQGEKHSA
# PIK3CD (Human), sequence (O00329 whole entry, looked up): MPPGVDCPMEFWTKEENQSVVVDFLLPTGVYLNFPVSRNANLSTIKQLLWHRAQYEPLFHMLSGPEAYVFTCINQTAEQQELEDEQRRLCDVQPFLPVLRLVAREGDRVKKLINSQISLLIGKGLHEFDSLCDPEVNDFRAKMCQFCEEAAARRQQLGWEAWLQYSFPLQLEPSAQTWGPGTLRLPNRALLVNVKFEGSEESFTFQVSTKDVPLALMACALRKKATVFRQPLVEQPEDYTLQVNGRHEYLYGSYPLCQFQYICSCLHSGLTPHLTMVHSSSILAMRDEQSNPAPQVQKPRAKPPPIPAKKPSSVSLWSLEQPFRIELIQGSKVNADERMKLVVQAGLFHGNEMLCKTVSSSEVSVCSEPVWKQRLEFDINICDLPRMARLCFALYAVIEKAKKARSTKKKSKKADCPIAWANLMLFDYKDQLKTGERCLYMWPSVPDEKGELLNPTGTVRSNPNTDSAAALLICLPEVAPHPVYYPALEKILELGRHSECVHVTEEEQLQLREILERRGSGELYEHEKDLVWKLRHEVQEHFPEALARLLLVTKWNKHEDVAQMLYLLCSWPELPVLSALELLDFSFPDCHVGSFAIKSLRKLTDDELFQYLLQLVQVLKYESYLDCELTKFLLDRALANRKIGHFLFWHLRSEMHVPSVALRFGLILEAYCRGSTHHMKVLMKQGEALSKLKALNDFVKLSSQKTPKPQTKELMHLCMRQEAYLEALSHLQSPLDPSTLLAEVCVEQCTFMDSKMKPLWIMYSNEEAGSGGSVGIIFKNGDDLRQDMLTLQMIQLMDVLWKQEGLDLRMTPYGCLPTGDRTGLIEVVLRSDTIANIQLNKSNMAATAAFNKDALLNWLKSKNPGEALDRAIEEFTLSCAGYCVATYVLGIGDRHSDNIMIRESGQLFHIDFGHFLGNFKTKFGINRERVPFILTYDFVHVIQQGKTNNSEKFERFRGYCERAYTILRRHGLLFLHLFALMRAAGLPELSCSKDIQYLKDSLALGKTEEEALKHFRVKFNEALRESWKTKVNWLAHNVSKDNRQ
Structure (SMILES),IC50 (PIK3CD (Human)),IC50 (PIK3CG (human))
CCC(Nc1nc(N)nc(C)c1/C=C/C(=O)N1CCNCC1)c1nc2cccc(C)c2c(=O)n1-c1ccccc1 (configuration not stated),0.01 to 0.1 µM,
CCC(Nc1nc(N)nc(C)c1/C=C/C(N)=O)c1nc2cccc(C)c2c(=O)n1-c1ccccc1 (configuration not stated),< 0.01 µM,
CCC(Nc1nc(N)nc(C)c1/C=C/C(=O)Nc1ccncc1)c1nc2cccc(C)c2c(=O)n1-c1ccccc1 (configuration not stated),0.01 to 0.1 µM,
CCNC(=O)/C=C/c1c(C)nc(N)nc1NC(CC)c1nc2cccc(C)c2c(=O)n1-c1ccccc1 (configuration not stated),0.01 to 0.1 µM,
CCC(Nc1nc(N)ncc1-c1cncc(S(=O)(=O)N(C)C)c1)c1nc2cccc(F)c2c(=O)n1-c1ccccc1 (configuration not stated),0.02 to 0.1 µM,0.02 to 0.1 µM
CCC(Nc1nc(N)ncc1-c1cncc(S(N)(=O)=O)c1)c1nc2cccc(F)c2c(=O)n1-c1ccccc1 (configuration not stated),0.02 to 0.1 µM,0.02 to 0.1 µM
CCC(Nc1nc(N)ncc1-c1cncc(S(=O)(=O)Nc2ccc(F)c(Cl)c2)c1)c1nc2cccc(F)c2c(=O)n1-c1ccccc1 (configuration not stated),< 0.02 µM,0.02 to 0.1 µM
CCC(Nc1nc(N)nc(C)c1/C=C/C(=O)Nc1cccc(C)n1)c1nc2cccc(C)c2c(=O)n1-c1ccccc1 (configuration not stated),< 0.01 µM,
CCC(Nc1nc(N)nc(C)c1/C=C1\CC(=O)NC1=O)c1nc2cccc(C)c2c(=O)n1-c1ccccc1 (configuration not stated),0.01 to 0.1 µM,
CCC(Nc1nc(N)nc(C)c1/C=C/C(=O)NC(C)C)c1nc2cccc(C)c2c(=O)n1-c1ccccc1 (configuration not stated),0.01 to 0.1 µM,
CCC(Nc1nc(N)nc(C)c1-c1cncc(S(N)(=O)=O)c1)c1nc2cccc(F)c2c(=O)n1-c1ccccc1 (configuration not stated),0.02 to 0.1 µM,0.1 to 1 µM
CCC(Nc1nc(N)ncc1-c1cncc(S(=O)(=O)Nc2ccccc2F)c1)c1nc2cccc(F)c2c(=O)n1-c1ccccc1 (configuration not stated),< 0.02 µM,0.02 to 0.1 µM
CCC(Nc1nc(N)nc(C)c1/C=C/C(=O)N1CCOCC1)c1nc2cccc(C)c2c(=O)n1-c1ccccc1 (configuration not stated),< 0.01 µM,
CCC(Nc1nc(N)nc(C)c1/C=C/C(=O)NC)c1nc2cccc(C)c2c(=O)n1-c1ccccc1 (configuration not stated),< 0.01 µM,
CCC(Nc1nc(N)ncc1-c1cncc(S(=O)(=O)N2CCCC2)c1)c1nc2cccc(F)c2c(=O)n1-c1ccccc1 (configuration not stated),< 0.02 µM,< 0.02 µM
CCC(Nc1nc(N)nc(C)c1/C=C/C(=O)Nc1ccccn1)c1nc2cccc(C)c2c(=O)n1-c1ccccc1 (configuration not stated),< 0.01 µM,

# More lines, now with the values ahead:
IC50 (PIK3CD (Human)),IC50 (PIK3CG (human)),Structure (SMILES)
0.01 to 0.1 µM,,C=Cc1c(C)nc(N)nc1NC(CC)c1nc2cccc(C)c2c(=O)n1-c1ccccc1 (configuration not stated)
< 0.02 µM,0.1 to 1 µM,CCC(Nc1nc(N)ncc1-c1cncc(S(=O)(=O)Nc2ccccc2C)c1)c1nc2cccc(F)c2c(=O)n1-c1ccccc1 (configuration not stated)
0.01 to 0.1 µM,,CCC(Nc1nc(N)nc(C)c1/C=C/C(=O)n1cccn1)c1nc2cccc(C)c2c(=O)n1-c1ccccc1 (configuration not stated)
0.02 to 0.1 µM,0.1 to 1 µM,CCC(Nc1nc(N)ncc1-c1cncc(S(=O)(=O)C(C)C)c1)c1nc2cccc(F)c2c(=O)n1-c1ccccc1 (configuration not stated)
< 0.01 µM,,CCC(Nc1nc(N)nc(C)c1/C=C/C(=O)Nc1cccnc1)c1nc2cccc(C)c2c(=O)n1-c1ccccc1 (configuration not stated)
< 0.01 µM,,CCC(Nc1nc(N)nc(C)c1/C=C/C(=O)Nc1nccs1)c1nc2cccc(C)c2c(=O)n1-c1ccccc1 (configuration not stated)
< 0.02 µM,0.02 to 0.1 µM,CCC(Nc1nc(N)ncc1-c1cncc(S(=O)(=O)NC(C)(C)C)c1)c1nc2cccc(C)c2c(=O)n1-c1ccccc1 (configuration not stated)
